Measurements taken from US8609608B2, “Antimicrobial peptides” (C3 Jian, Inc., priority 2007, dated 2013).
Where no end group is shown, it is not given here.

system: S. mutans; test: not given; settings: pH 4.9

Row | Substance | MIC pH 4.9 [μM]
1 | FHFFHHFFHFFHHFKLLK [AA-5, FHFFHHFFHFFHHFKLLK] | 28.125
2 | LYHFLHWFQRF [AA-7, LYHFLHWFQRF] | >50
3 | HHFFHHFHHFFHHF-NH2 [AA-1, HHFFHHFHHFFHHF*] | 12.5
4 | KLLKGATFHFFHHFFHFFHHF [AA-3] | 6.25
5 | FHYFWHWFHRF [AA-6, FHYFWHWFHRF] | >50

same assay, conditions: pH 7.4

Row | Substance | MIC pH 7.4 [μM]
6 | FHFFHHFFHFFHHFKLLK [AA-5, FHFFHHFFHFFHHFKLLK] | >125
7 | LYHFLHWFQRF [AA-7, LYHFLHWFQRF] | 125
8 | HHFFHHFHHFFHHF-NH2 [AA-1, HHFFHHFHHFFHHF*] | >125
9 | KLLKGATFHFFHHFFHFFHHF [AA-3] | >125
10 | FHYFWHWFHRF [AA-6, FHYFWHWFHRF] | 125

system: S. mutans UA159; test: Killing kinetics (time-kill assay); assay type: cell-based, Streptococcus mutans; settings: after 30 min, peptide 25 μg/ml
Experimental: The determination of killing kinetics for fusion and parental peptides was conducted essentially as described previously (Eckert et al. (2006) Antimicrob. Agents Chemother. 50: 1480-1488). Briefly, medium-diluted overnight UA159 cultures (0.5×10^6 to 1×10^6 CFU/ml) were challenged with peptide at a concentration of 25 μg/ml, and at the indicated time intervals (“0 min” indicates untreated samples), a 10-μL aliquot was removed and the surviving CFU were rescued by dilution (1:50) into growth medium and then spread on TH agar plates for quantitation. […] Kinetics were determined by recording the average number of surviving CFU/ml versus incubation time in the presence of peptide (all assays were independently repeated three to five times). For Table 8, time to bactericidal killing (TC) values were defined as the time required for the level of surviving CFU/ml from peptide-treated cultures to fall 3 log10 below the levels of recovered S. mutans CFU/ml from untreated samples.

Row | Substance | fewer CFU/ml recovered from fusion peptide-treated cultures than from parental peptide-treated samples
11 | RWRRLLKKLHHLLHGGGIKQLLHFFQRF-NH2 [FBα-21, RWRRLLKKLHHLLH-GGG-IKQLLHFFQRF*] | more than 2 log10

same assay, conditions: peptide 25 μg/ml, UA159

Row | Substance | TC, time required to kill 3 log10 of recoverable CFU/ml [min]
12 | RWRWRWFRWRWRWF-NH2 [FRW-8, RWRWRWFRWRWRWF*] | 50
13 | RRRWWWFGGGRRRWWWF-NH2 [FRW-5, RRRWWWF-GGG-RRRWWWF*] | 270
14 | RWRWRWFGGGRWRWRWF-NH2 [FRW-11, RWRWRWF-GGG-RWRWRWF*] | 90
15 | RRRWWWFASASARRRWWWF-NH2 [FRW-3, RRRWWWF-ASASA-RRRWWWF*] | 480
16 | RRRWWWF-NH2 [Peptide 2C-3, RRRWWWF*] | 220
17 | RWRWRWFASASARWRWRWF-NH2 [FRW-9, RWRWRWF-ASASA-RWRWRWF*] | 45

system: S. gordonii Challis DL1; test: not given; assay type: cell-based, Streptococcus gordonii; settings: not given
Experimental: (§1) S. mutans clinical isolates UA140 (32), UA159 (1), T8 (33), ATCC 25175, GS5 (Kuramitsu and Ingersoll (1977) Infect Immun., 17: 330-337), and all gram-positive strains listed below (see Table 9) were grown under anaerobic conditions in brain heart infusion or Todd-Hewitt (TH) broth (Difco) overnight at 37° C. prior to use (Eckert et al. (2006) Antimicrob. Agents Chemother. 50: 3651-3657). Veillonella atypica PK1910 was grown in Veillonella medium (Egland et al. (2004) Proc. Natl. Acad. Sci., USA, 101: 16917-16922). All strains were grown in an anaerobic atmosphere of 80% N2, 10% CO2, and 10% H2.
(§2) Antibacterial growth inhibition assays were performed using sterile 96-well plates in a final volume of 100 μl, TH or Veillonella medium as described previously (Qi et al. (2005) FEMS Microbial Lett. 251: 321-326). Briefly, bacterial cells were grown overnight to an optical density at 600 nm of 0.75 to 0.8 (corresponding to 1×10^8 CFU/ml) and then diluted to 1×10^5 CFU/ml in broth and aliquoted onto plates. An appropriate volume of peptide stock solution (5 to 20 mg/ml, in water or methanol, depending on solubility) was then added to the first column of the plate to give 500 μg/ml or 512 μg/ml, followed by serial 1:2 dilutions across the plate to give wells containing peptides ranging from 500 to 1.95 μg/ml or 512 to 2 μg/ml. Methanol alone was also added to control for the effects of the solvent. The plates were then incubated at 37° C. under anaerobic conditions for 16 to 20 h without shaking, and the MIC was determined as the concentration of peptide present in the last clear well after visual inspection. Up to 5% (vol/vol) methanol was found not to be antimicrobial (data not shown). MICs were determined in triplicate for all bacteria.

Row | Substance | MIC S. gordonii Challis DL1 [µg/mL]
18 | RRRWWWF-NH2 [Peptide 2C-3, RRRWWWF*] | 32

system: clinical isolates of S. mutans; test: not given; assay type: cell-based, Streptococcus mutans; settings: clinical isolates of
Experimental: as §1, §2

Row | Substance | MIC (fusion library peptides) [µg/mL] | MIC [µg/mL]
19 | RWRRLLKKLHHLLHGGGIKQLLHFFQRF-NH2 [FBα-21, RWRRLLKKLHHLLH-GGG-IKQLLHFFQRF*] | 16 | –
20 | RWRWRWFRWRWRWF-NH2 [FRW-8, RWRWRWFRWRWRWF*] | 16 | –
21 | RRRWWWFGGGRRRWWWF-NH2 [FRW-5, RRRWWWF-GGG-RRRWWWF*] | 16 | –
22 | RWRWRWFGGGRWRWRWF-NH2 [FRW-11, RWRWRWF-GGG-RWRWRWF*] | 16 | –
23 | RRRWWWFASASARRRWWWF-NH2 [FRW-3, RRRWWWF-ASASA-RRRWWWF*] | 32 | –
24 | RRRWWWF-NH2 [Peptide 2C-3, RRRWWWF*] | – | 4 to 8
25 | RWRWRWFASASARWRWRWF-NH2 [FRW-9, RWRWRWF-ASASA-RWRWRWF*] | 16 | –

system: V. atypica PK1910; test: not given; assay type: cell-based, Veillonella atypica; settings: not given
Experimental: as §1, §2

Row | Substance | MIC V. atypica PK1910 [µg/mL]
26 | RRRWWWF-NH2 [Peptide 2C-3, RRRWWWF*] | 64

system: L. casei ATCC 4646; test: not given; assay type: cell-based, Lactobacillus casei; settings: not given
Experimental: as §1, §2

Row | Substance | MIC L. casei ATCC 4646 [µg/mL]
27 | RRRWWWF-NH2 [Peptide 2C-3, RRRWWWF*] | 16

system: S. mitis ATCC 903; test: not given; assay type: cell-based, Streptococcus mitis; settings: not given
Experimental: as §1, §2

Row | Substance | MIC S. mitis ATCC 903 [µg/mL]
28 | RRRWWWF-NH2 [Peptide 2C-3, RRRWWWF*] | 32

system: S. sanguinis NY101; test: not given; assay type: cell-based, Streptococcus sanguinis; settings: not given
Experimental: as §1, §2

Row | Substance | MIC S. sanguinis NY101 [µg/mL]
29 | RRRWWWF-NH2 [Peptide 2C-3, RRRWWWF*] | 16
